Test results published in BindingDB's records for doi:10.1016/s0960-894x(01)00701-6 (Pfizer, 2001).

Experiment: Ability to inhibit human tissue plasminogen activator stimulator

- Ki: 245 µM
Structure (SMILES): Cc1ccc(N=C(N)N)nc1 [N-(5-Methyl-pyridin-2-yl)-guanidine]
